Consider 18 compounds from patent publication US8063090B2, “Mineralocorticoid receptor modulators” (Merck Sharp & Dohme Corp., priority 2007, dated 2011).

SMILES strings stand for the structures.

Test system in one experiment: not given
Assay: not given
The settings on record: in combination with standard CHF therapy, patients suffering from advanced CHF; cited from earlier work.
For `CC(=O)S[C@@H]1CC2=CC(=O)CC[C@]2(C)[C@H]2CC[C@@]3(C)[C@@H](CC[C@@]34CCC(=O)O4)[C@H]12` [spironolactone], the “reduced cardiac related mortality” value is listed as 30% and the “reduced frequency of hospitalization” value is recorded as 33%.

For the next experiment, the target named is T1, recombinant rhesus mineralocorticoid receptor (Macaca mulatta, UniProt A0A5F8ATS5).
T1 construct: made in house; host or cells: insect cells infected with recombinant baculovirus; clarified cell lysate used
T1 sequence (A0A5F8ATS5 1-984): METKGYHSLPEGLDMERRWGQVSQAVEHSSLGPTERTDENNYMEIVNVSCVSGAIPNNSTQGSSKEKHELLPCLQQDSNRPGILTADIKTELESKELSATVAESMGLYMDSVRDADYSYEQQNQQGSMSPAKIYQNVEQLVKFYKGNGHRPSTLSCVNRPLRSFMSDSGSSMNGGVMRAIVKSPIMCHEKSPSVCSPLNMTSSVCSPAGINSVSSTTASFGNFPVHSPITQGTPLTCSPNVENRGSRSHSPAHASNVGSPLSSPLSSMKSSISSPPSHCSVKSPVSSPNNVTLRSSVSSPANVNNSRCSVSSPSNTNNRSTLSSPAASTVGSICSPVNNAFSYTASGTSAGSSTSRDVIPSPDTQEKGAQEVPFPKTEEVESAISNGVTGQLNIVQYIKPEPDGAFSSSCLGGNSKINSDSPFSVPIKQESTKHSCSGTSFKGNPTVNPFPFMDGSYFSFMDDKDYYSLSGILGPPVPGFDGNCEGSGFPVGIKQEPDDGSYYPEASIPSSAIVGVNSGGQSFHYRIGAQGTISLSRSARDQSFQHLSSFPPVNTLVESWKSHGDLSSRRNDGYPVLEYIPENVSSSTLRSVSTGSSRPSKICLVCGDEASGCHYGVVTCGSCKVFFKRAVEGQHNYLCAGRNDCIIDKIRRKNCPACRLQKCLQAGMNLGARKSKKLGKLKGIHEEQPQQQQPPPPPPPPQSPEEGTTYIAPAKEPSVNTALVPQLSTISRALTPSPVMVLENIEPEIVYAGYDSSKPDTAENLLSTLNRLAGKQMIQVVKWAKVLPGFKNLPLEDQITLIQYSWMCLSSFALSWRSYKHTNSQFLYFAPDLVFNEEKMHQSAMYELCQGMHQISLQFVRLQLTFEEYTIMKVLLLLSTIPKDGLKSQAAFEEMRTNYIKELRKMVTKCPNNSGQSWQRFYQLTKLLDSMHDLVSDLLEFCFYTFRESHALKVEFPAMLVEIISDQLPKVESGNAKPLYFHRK
Nature of the experiment: Mineralocorticoid receptor radioligand ([3H]-aldosterone) filter binding assay. The settings on record: displacement of [3H]-aldosterone, insect cell lysate, 20° C., read-out: Mineralocorticoid receptor binding affinity Ki. How it is done:
Measurement of Mineralocorticoid Receptor Binding Affinity
The binding affinity of compounds for the mineralocorticoid receptor was determined by measuring their ability to prevent binding of radiolabeled aldosterone to recombinant rhesus mineralocorticoid receptor in a traditional filter binding assay protocol.
Rhesus mineralocorticoid receptor cDNA was cloned from a cDNA library using and used to prepare a recombinant baculovirus encoding the rhesus mineralocorticoid receptor coding sequence by standard molecular biological and cell biological methods. […] Cells were collected and lysed. The lysates were clarified by centrifugation and stored at −80 C until use in the radioligand binding assay.
The assays were carried out in 20 mM Hepes, 10 mM Na2MoO4, 10 mM 2-mercaptoethanol, 157 mM sucrose, and 3.7 mM CHAPS. [^3H]-Aldosterone (1 mCi/ml, 70-100 Ci/mmol) was purchased from Perkin Elmer (NET419). Test compounds were dissolved in DMSO and diluted in DMSO to 50 times the desired final concentrations for 3-fold serial dilution dose response curves. A working stock solution of [^3H]-aldosterone was prepared by dilution of the commercial stock to 0.083 μM in assay buffer. The insect cell lysate containing rhesus mineralocorticoid receptor was thawed and diluted to 0.7 mg protein/mL. Assay were started by combining 20 μL of test compound solution, 920 μL of diluted insect cell lysate, and 60 μL of [^3H]-aldosterone working solution in 2-mL 96-well polypropylene square well plates (USA Scientific) at 20° C. The mixture was incubated for 3 hr with continuous agitation on a platform shaker. The mixture was then filtered through 96-well GF/B filter plates (Packard) that had been previously treated with a solution of polyethylenimine (Sigma, P-3143). The filter plate was washed 3 times with 0.5 mL of 50 mM Tris-HCl, pH 7.4 and then dried overnight at 37° C. in a vacuum oven. The bottom of the plate was sealed and 40 μL of Microscint-20 (Packard, 6013621) was added to each well before counting radioactivity with a Topcount plate reader. Non-specific radioligand binding was determined by adding non-radiolabeled aldosterone (0.5 mM in DMSO) to the assay mixture to a final concentration of 10 μM in place of test compound. IC50 and Ki values were determined using a four parameter logistic fit using a customized assay data analyzer software package.
Turning to `CC(c1ccccc1)n1ccnc1C(c1ccccc1)c1ccccc1` (racemic) [Compound 1-5, 2-(diphenylmethyl)-1-(1-phenylethyl)-1H-imidazole], the Ki was 2860 nM.
With `CC(c1cccc(I)c1)n1ccnc1C(c1ccccc1)c1ccccc1` (stereo not shown) [Compound 1-6, 2-(diphenylmethyl)-1-[1-(3-iodophenyl)ethyl]-1H-imidazole], the Ki stood at 2600 nM.
Turning to `COc1ccc(Cn2ccnc2C(c2ccccc2)c2ccccc2)cc1` [Compound 1-7, 2-(diphenylmethyl)-1-(4-methoxybenzyl)-1H-imidazole], the Ki is 2650 nM.
In the case of `FC(F)(F)c1cccc(Cn2ccnc2C(c2ccccc2)c2ccccc2)c1` [Compound 1-8, 2-(diphenylmethyl)-1-[3-(trifluoromethyl)benzyl]-1H-imidazole], the Ki came out at 410 nM.
The same measure, in the same setting: to `CC(c1cc(C(F)(F)F)cc(C(F)(F)F)c1)n1ccnc1C(c1ccccc1)c1ccccc1` (stereo not shown) [Compound 1-10, 1-{1-[3,5-bis(trifluoromethyl)phenyl]ethyl}-2-(diphenylmethyl)-1H-imidazole] belongs 1090 nM; to `FC(F)(F)c1cc(Cn2ccnc2C(c2ccccc2)c2ccccc2)cc(C(F)(F)F)c1` [Compound 1-11, 1-[3,5-bis(trifluoromethyl)benzyl]-2-(diphenylmethyl)-1H-imidazole], 1350 nM; to `Ic1cccc(Cn2ccnc2C(c2ccccc2)c2ccccc2)c1` [Compound 1-12, 2-(diphenylmethyl)-1-(3-iodobenzyl)-1H-imidazole], 287 nM.
For `Cc1cccc(Cn2ccnc2C(c2ccccc2)c2ccccc2)c1` [Compound 1-13, 2-(diphenylmethyl)-1-(3-methylbenzyl)-1H-imidazole], the Ki stood at 134 nM.
Still for that read-out and setting: to `O=[N+]([O-])c1cccc(Cn2ccnc2C(c2ccccc2)c2ccccc2)c1` [Compound 1-14, 2-(diphenylmethyl)-1-(3-nitrobenzyl)-1H-imidazole] belongs 587 nM; to `Nc1cccc(Cn2ccnc2C(c2ccccc2)c2ccccc2)c1` [Compound 1-15, 3-{[2-(diphenylmethyl)-1H-imidazol-1-yl]methyl}aniline], 633 nM; to `CC(c1cc(Cl)cc(Cl)c1)n1ccnc1C(c1ccccc1)c1ccccc1` (stereo not shown) [Compound 1-16, 1-[1-(3,5-dichlorophenyl)ethyl]-2-(diphenylmethyl)-1H-imidazole], 298 nM.
On the same count and under the same terms, to `COc1ccc(Br)cc1Cn1ccnc1C(c1ccccc1)c1ccccc1` [Compound 1-17, 1-(5-bromo-2-methoxybenzyl)-2-(diphenylmethyl)-1H-imidazole] belongs 499 nM; to `Clc1cc2c(cc1Cn1ccnc1C(c1ccccc1)c1ccccc1)OCO2` [Compound 1-18, 1-[(6-chloro-1,3-benzodioxol-5-yl)methyl]-2-(diphenylmethyl)-1H-imidazole], 1120 nM; to `COc1cc(OC)cc(C(=O)Nc2cccc(Cn3ccnc3C(c3ccccc3)c3ccccc3)c2)c1` [Compound 1-19, N-(3-{[2-(diphenylmethyl)-1H-imidazol-1-yl]methyl}phenyl)-3,5-dimethoxybenzamide], 302 nM.
For the compound `O=C(Nc1cccc(Cn2ccnc2C(c2ccccc2)c2ccccc2)c1)c1cc(Cl)cc(Cl)c1` [Compound 1-20, 3,5-dichloro-N-(3-{[2-(diphenylmethyl)-1H-imidazol-1-yl]methyl}phenyl)benzamide], the Ki worked out at 162 nM.
On the same count and under the same terms, under `c1ccc(Cn2c(C(c3ccccc3)c3ccccc3)nc3ccccc32)cc1` [Compound 2-3, 1-benzyl-2-(diphenylmethyl)-1H-benzimidazole] stands 964 nM; under `CC(c1ccccc1)n1c(C(c2ccccc2)c2ccccc2)nc2ccccc21` (stereo not shown) [Compound 2-4, 2-(diphenylmethyl)-1-(1-phenylethyl)-1H-benzimidazole], 2090 nM.

What is called Ki is the dissociation constant of the complex between target and ligand, obtained from inhibition or displacement.
